The source of these data is patent US6368814B1, “Tricyclic antidepressant derivatives and immunoassay” (Roche Diagnostics Corporation, priority 2000, dated 2002).

For assay [1], the system named is Monoclonal Antibody TCA 1.1. As to the kind of experiment: Competitive microplate ELISA of imipramine with monoclonal antibody TCA 1.1, wells coated with compound 11 conjugate. As to conditions: compound 11 coated wells, mAb TCA 1.1. The format is binding, mouse. The method, then:
(§1) To analyze the sera for antibody content an ELISA assay using the cognate antigen linked to a different protein (2-carboxypropyl-dihydroamitriptyline-BSA) (compound 11) was used. This antigen was diluted to 5 μg/ml in 0.1 M carbonate buffer, pH 9.5. A volume of 100 μl of this antigen solution was pipetted into wells of a polystyrene 96-well microplate (Costar, Cambridge, Mass.). This was incubated in a plastic bag at 37° C. for 1 hour. The solutions were then removed via suction, and wells were filled with a blocking solution. This consisted of gelatine hydrolysate, 1%, sucrose, 2%, Tris, 0.15 M, pH 7.4 (all reagents from Sigma Chemicals). This was allowed to block the plates for 1 hour at room temperature in plastic bags. Wells were then emptied via suction.
(§2) Dilutions of the sera were prepared by transferring 1 μl to a glass test tube containing 1 ml of phosphate buffered saline, with 0.1% Tween 20 (PBS-T). One hundred and fifty microliters of this dilution of each serum were transferred to wells in Row A of a polyvinyl chloride microplate. All other wells were filled with 100 μl of PBS-T. Serial three-fold dilutions were prepared by transferring 50 μl from Row A to Row B using a multi-channel micropipettor. Mixing was accomplished by re-pipetting 3 times. This was repeated from Row B to C and so on down each column of wells.
(§3) Once all dilutions were prepared, 95 μl of each, starting with Row H, was transferred to the same row in the coated plate. The plate was placed in a Ziploc plastic bag with a damp piece of paper towel and incubated at 37° C. for one hour. Following incubation, the wells were washed four times manually with 300 μl aliquots of PBS-T. A 1:5000 dilution of goat anti-mouse IgG AM-HRP conjugate (Kirkegaard & Perry, Gaithersburg, Md.) was prepared in PBS-T. 100 μl of this was then pipetted into each well, the plate again incubated as above. The plate was then washed 6 times with 300 μl of PBS-T manually, and 100 μl of K-Blue substrate (Neogen, Lexington, Ky.) was added to each well. This was allowed to develop in the dark for 5 minutes, and the reaction was then stopped by the addition of 100 μl of a 2 M phosphoric acid solution. The optical densities of the wells were read using a Molecular Devices Tmax plate reader and a Macintosh computer.
(§4) Hybridoma clone TCA 1.1 was placed into high-density culture and supernatant harvested. This preparation was preserved by the addition of thimerosal to a concentration of 0.02%. Antibody content was evaluated by a titer experiment in which varying dilutions of supernatant were placed into microplate wells coated with a constant amount of antigen conjugate.
(§5) Incubation for 1 hour at 37° C. was followed by the same procedure as for the screening assays. Optical densities were plotted versus the final concentration of imipramine calculated as a molar (gram-molecular weight drug per liter) concentration.

The test system of assay [2] is Monoclonal Antibody TCA 1.1. Nature of the assay: Competitive microplate ELISA of imipramine with monoclonal antibody TCA 1.1, wells coated with compound 27 conjugate. As to conditions: compound 27 coated wells, mAb TCA 1.1. The format is binding, mouse. The method, then:
as §1, §2, §3
This animal received a booster immunization of 100 μg of antigen in incomplete Freund's adjuvant four days before the fusion was performed. The myeloma cell line F0 (ATCC, Manassas, Va.) was used for the fusion. The fusion was performed by the method of de St Groth and Scheidegger, Journal of Immunol. Meth. 35, 1-21, 1980. Ten days later hybrid cell cultures were ready for screening.
as §4, §5

Setting [3] is: imipramine final concentration 1.98 × 10^−6 molar.
Where [4] appears, read: imipramine final concentration 2.2 × 10^−7 molar.
[5] abbreviates: imipramine final concentration 2.45 × 10^−8 molar.
Setting [6] is: imipramine final concentration 6.6 × 10^−7 molar.
The mark [7] stands for this setting: imipramine final concentration 7.43 × 10^−8 molar.
[8] abbreviates: imipramine final concentration 8.15 × 10^−9 molar.

As to `CN(C)CCCN1c2ccccc2CCc2ccccc21` [Imipramine, imipramine], the “OD450 compound 11” value was 0.056 in assay [1] (setting [3]); 1.35 in assay [1] (setting [4]); 2.325 in assay [1] (setting [5]); 0.541 in assay [1] (setting [6]); 1.95 in assay [1] (setting [7]); 2.6 in assay [1] (setting [8]). Moreover, the “OD450 compound 27” value in assay [2] (setting [3]) was determined as 0.037; in assay [2] (setting [4]), 0.276; in assay [2] (setting [5]) it was 1.719; in assay [2] (setting [6]), 0.038; in assay [2] (setting [7]) it was 1.124; in assay [2] (setting [8]), 2.434.
